Experimental data from patent US7989442B2, “Progesterone receptor modulators” (N.V. Organon, priority 2006, dated 2011).

Legend:
[1] = system: mature cyclic rats; assay: Ovulation inhibition in rat after oral administration (in vivo progestagenic activity); conditions: 96 h, minimal active dose: average number of ova reduced by 60% relative to placebo, oral administration for 1 complete cycle (4 days), read-out: MAD
Protocol: Ovulation inhibition after oral administration of the compounds of the invention was studied in mature cyclic rats. Animals were treated with test compound (oral administration) for 1 complete cycle (4 days, from oestrus to pro-oestrus) and the number of ova in the oviduct was microscopically assessed at autopsy in the morning of the next (expected) oestrus. The average number of ova per rat was calculated; the minimal active dose (MAD) is defined as the level at which the average number of ova is reduced by 60% relative to placebo-treated animals.

Row | Compound | minimal effective dose [1] [mg/kg] | melting point [°C]
1 | N#Cc1cc2c(cc1F)Oc1ccccc1[C@@H]1[C@@H](NC(=O)C(F)(F)F)CCCN21 (stereo in doubt) [Example 2, (−)-(cis)-N-(7-cyano-8-fluoro-1,3,4,14b-tetrahydro-2H-dibenzo [b,f]pyrido[1,2-d][1,4]oxazepin-1-yl)-2,2,2-trifluoroacetamide] | 0.014 | 
2 | N#Cc1c(F)cc2c(c1Cl)N1CCC[C@H](NC(=O)C(F)(F)F)[C@H]1c1ccccc1O2 (stereo in doubt) [Example 3, (−)-(cis)-N-[6-chloro-7-cyano-8-fluoro-1,3,4,14b-tetrahydro-2H-dibenzo [b,f]pyrido[1,2-d][1,4]oxazepin-1-yl]-2,2,2-trifluoroacetamide] | 0.08 | 
3 | N#Cc1c(F)cc2c(c1C#N)N1CCC[C@H](NC(=O)C(F)(F)F)[C@H]1c1ccccc1O2 (stereo in doubt) [Example 4, (−)-(cis)-N-(6,7-dicyano-8-fluoro-1,3,4,14b-tetrahydro-2H-dibenzo [b,f]pyrido[1,2-d][1,4]oxazepin-1-yl)-2,2,2-trifluoroacetamide] | 0.02 | 
4 | N#Cc1c(F)cc2c(c1Cl)N1CCC[C@H](NC(=O)C(F)(F)F)[C@H]1c1ccc(F)cc1O2 (stereo in doubt) [Example 5, (−)-(cis)-N-(6-chloro-7-cyano-8,12-difluoro-1,3,4,14b-tetrahydro-2H-dibenzo [b,f]pyrido[1,2-d][1,4]oxazepin-1-yl)-2,2,2-trifluoroacetamide] | ≤ 0.025 | 174 to 175
5 | CC(=O)N[C@H]1CCCN2c3c(cc(F)c(C#N)c3Cl)Oc3cccc(F)c3[C@H]12 (stereo in doubt) [Example 6, (−)-(cis)-N-(6-chloro-7-cyano-8,14-difluoro-1,3,4,14b-tetrahydro-2H-dibenzo [b,f]pyrido[1,2-d][1,4]oxazepin-1-yl)acetamide] | < 0.02 | 
6 | N#Cc1c(F)cc2c(c1Cl)N1CCC[C@H](NC(=O)C(F)(F)F)[C@H]1c1cccc(F)c1O2 (stereo in doubt) [Example 7, (−)-(cis)-N-(6-chloro-7-cyano-8,11-difluoro-1,3,4,14b-tetrahydro-2H-dibenzo [b,f]pyrido[1,2-d][1,4]oxazepin-1-yl)-2,2,2-trifluoroacetamide] | 0.025 | 
7 | N#Cc1cc2c(cc1F)Oc1cccc(F)c1[C@@H]1[C@@H](NC(=O)C(F)(F)F)CCCN21 (stereo in doubt) [Example 8, (−)-(cis)-N-(7-cyano-8,14-difluoro-1,3,4,14b-tetrahydro-2H-dibenzo [b,f]pyrido[1,2-d][1,4]oxazepin-1-yl)-2,2,2-trifluoroacetamide] | 0.01 | 
8 | N#Cc1c(F)cc2c(c1Cl)N1CCC[C@H](NC(=O)C(F)(F)F)[C@H]1c1c(F)cccc1O2 (stereo in doubt) [Example 9, (−)-(cis)-N-(6-chloro-7-cyano-8,14-difluoro-1,3,4,14b-tetrahydro-2H-dibenzo [b,f]pyrido[1,2-d][1,4]oxazepin-1-yl)-2,2,2-trifluoroacetamide] | < 0.02 | 
9 | CC(=O)c1cccc2c1N1CCC[C@H](NC(=O)C(F)(F)F)[C@H]1c1ccccc1O2 [eutomer of example 52 of WO03/ 084963, reference compound] | > 4 | 
10 | C=Cc1cccc2c1N1CCC[C@H](NC(=O)C(F)(F)F)[C@H]1c1ccccc1O2 [eutomer of example 54 of WO03/ 084963, reference compound] | > 4 | 
11 | N#Cc1cc(F)cc2c1N1CCC[C@H](NC(=O)C(F)(F)F)[C@H]1c1ccccc1O2 [eutomer of example 58 of WO03/ 084963, reference compound] | 0.38 | 
12 | N#Cc1ccc2c(c1)N1CCC[C@H](NC(=O)C(F)(F)F)[C@H]1c1ccccc1O2 [eutomer of example 63 of WO03/ 084963, reference compound] | ~4 | 
13 | CC(=O)N[C@H]1CCCN2c3c(ccc(Cl)c3Cl)Oc3ccccc3[C@H]12 [example 47 of WO03/ 084963, reference compound] | > 4 | 
14 | CC(=O)c1cc(F)cc2c1N1CCC[C@H](NC(=O)C(F)(F)F)[C@H]1c1ccccc1O2 [example 57 of WO03/ 084963, reference compound] | > 4 | 
15 | C=Cc1cc(F)cc2c1N1CCC[C@H](NC(=O)C(F)(F)F)[C@H]1c1ccccc1O2 [example 59 of WO03/ 084963, reference compound] | > 4 | 
16 | Cc1cc(F)cc2c1N1CCC[C@H](NC(=O)C(F)(F)F)[C@H]1c1ccccc1O2 [example 60 of WO03/ 084963, reference compound] | ~1 | 
